Legend:
endogenous RA receptor = assay: Delta-MTV-CAT constructs, RA induction in CV-1 cells without cotransfected RAR expression vector; assay type: cell-based, monkey
Description: Cells were transfected in 10 cm dishes with 10 μg of DNA containing 5 μg of reporter plasmid, 1-2 μg of either RSV-LUC (a), or RSV-βGAL or pCH110 (c and d), pGEM4 as carrier DNA, and for the experiments shown in a and d, 1 μg of RSV-RAR expression vector or the same amount of an RSV vector generating a nonsense transcript. Cells were harvested 1 day after addition of retinoic acid. All CAT assays represent equivalent amounts of β-galactosidase activity; β-GAL assays were normalized to luciferase activity.

GR = target: T1, GR (Homo sapiens, UniProt P04150); assay: Cotransfection of GR with construct βRE1 in CV-1 cells; assay type: cell-based; conditions: absence or addition of the appropriate ligand
T1 construct: expressed in transfected cells; host or cells: CV-1 (monkey kidney)
T1 sequence (P04150 1-777): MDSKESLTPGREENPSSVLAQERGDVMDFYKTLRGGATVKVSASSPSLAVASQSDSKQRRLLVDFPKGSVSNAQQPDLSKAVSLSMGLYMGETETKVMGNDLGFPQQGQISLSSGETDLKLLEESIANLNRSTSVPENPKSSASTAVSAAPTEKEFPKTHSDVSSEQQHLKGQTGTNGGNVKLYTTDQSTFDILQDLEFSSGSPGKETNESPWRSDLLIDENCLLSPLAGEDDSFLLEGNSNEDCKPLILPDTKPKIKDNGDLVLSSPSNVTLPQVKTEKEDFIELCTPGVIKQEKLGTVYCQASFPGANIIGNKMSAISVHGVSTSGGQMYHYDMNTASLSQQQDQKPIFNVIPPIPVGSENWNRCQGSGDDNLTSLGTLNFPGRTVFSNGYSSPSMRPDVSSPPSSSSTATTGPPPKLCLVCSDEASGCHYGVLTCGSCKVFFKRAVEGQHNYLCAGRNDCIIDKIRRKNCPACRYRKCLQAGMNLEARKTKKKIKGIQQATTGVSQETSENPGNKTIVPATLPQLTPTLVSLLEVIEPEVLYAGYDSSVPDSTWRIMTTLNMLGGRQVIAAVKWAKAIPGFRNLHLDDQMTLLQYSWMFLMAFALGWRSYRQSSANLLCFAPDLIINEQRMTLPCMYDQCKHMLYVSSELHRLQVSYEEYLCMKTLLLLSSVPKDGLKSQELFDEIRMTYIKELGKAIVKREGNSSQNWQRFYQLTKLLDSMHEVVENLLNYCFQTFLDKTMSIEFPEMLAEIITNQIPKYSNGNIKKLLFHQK
From the text: (§1) Inspection of the sequences of βRE1, βRE2, and βRE3 (see FIG. 2b) identifies a tandem repeat of the 6 bp motif. The center to center separation of 11 bp between these repeats is one turn of the DNA helix. […] Apparently, a single half site element of the RARβ gene would reciprocally be responsive to the TR, ER, and/or other members of the receptor superfamily.

RAR = target: T2, RAR (Homo sapiens, UniProt P10276); assay: Delta-MTV constructs, RA induction in CV-1 cells with cotransfected RAR expression vector; assay type: cell-based; conditions: Delta-MTV-CAT constructs; CV-1 cells
T2 construct: expressed in transfected cells; host or cells: CV-1 (monkey kidney)
T2 sequence (P10276 1-462): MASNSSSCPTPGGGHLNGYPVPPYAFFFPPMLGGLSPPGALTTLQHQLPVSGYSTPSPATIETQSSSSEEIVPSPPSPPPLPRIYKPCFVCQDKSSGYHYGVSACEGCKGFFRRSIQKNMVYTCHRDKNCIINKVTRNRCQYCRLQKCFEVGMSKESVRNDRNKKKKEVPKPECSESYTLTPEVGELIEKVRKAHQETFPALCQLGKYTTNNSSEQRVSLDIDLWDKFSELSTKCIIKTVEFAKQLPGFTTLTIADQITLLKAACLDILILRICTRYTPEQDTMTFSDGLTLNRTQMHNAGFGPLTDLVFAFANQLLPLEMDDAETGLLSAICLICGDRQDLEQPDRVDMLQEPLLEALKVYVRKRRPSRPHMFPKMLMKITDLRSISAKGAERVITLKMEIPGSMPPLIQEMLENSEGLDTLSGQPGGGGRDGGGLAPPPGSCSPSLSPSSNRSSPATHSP

TR = assay: Cotransfection of TR with construct βRE1 in CV-1 cells; assay type: cell-based; conditions: cognate ligand
From the text: as §1

ER = target: T3, ER (Homo sapiens, UniProt P03372); assay: Cotransfection of ER with construct βRE1 in CV-1 cells; assay type: cell-based; conditions: absence or addition of the appropriate ligand
T3 construct: expressed in transfected cells; host or cells: CV-1 (monkey kidney)
T3 sequence (P03372 1-595): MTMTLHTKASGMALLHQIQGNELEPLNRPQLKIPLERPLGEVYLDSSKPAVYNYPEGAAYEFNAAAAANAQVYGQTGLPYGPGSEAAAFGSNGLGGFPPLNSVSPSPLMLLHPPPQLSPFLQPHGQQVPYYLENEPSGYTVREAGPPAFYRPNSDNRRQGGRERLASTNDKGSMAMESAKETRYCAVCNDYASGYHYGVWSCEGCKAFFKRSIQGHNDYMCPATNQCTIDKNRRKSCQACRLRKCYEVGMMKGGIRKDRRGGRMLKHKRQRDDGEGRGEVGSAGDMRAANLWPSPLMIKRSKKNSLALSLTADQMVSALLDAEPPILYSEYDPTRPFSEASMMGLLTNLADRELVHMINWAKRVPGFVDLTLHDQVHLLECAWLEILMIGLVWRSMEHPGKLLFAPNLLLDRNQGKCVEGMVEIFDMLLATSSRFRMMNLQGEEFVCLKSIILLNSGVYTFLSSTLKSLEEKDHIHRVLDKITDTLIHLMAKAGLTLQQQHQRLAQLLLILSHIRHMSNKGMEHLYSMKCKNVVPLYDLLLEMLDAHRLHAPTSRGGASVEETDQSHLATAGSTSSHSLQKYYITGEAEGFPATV
From the text: as §1

[1] = target: T4, vitamin D receptor (VD3R) (Homo sapiens, UniProt P11473); assay: Cotransfection of vitamin D receptor with construct βRE1 in CV-1 cells; assay type: cell-based; conditions: cognate ligand
T4 construct: expressed in transfected cells; host or cells: CV-1 (monkey kidney)
T4 sequence (P11473 1-427): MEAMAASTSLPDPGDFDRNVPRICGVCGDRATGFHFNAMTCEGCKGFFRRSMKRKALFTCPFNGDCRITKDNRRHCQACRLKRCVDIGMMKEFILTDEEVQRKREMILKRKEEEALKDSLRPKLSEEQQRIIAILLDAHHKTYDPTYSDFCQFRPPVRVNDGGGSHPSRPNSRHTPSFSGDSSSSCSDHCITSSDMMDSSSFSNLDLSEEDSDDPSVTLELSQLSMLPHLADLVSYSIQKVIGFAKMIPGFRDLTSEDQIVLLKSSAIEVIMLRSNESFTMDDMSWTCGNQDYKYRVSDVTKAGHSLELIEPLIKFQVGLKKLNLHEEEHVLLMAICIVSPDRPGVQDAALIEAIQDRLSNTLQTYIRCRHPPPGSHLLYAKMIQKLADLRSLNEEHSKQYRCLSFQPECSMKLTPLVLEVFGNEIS
From the text: as §1

RARα = target: T5, RARα (Homo sapiens, UniProt P10276); assay: ΔSV-CAT reporter cotransfection assay in CV-1 cells with RARα expression plasmid, ±RA; assay type: cell-based; set-up: expressed in transfected cells; host or cells: CV-1 (monkey kidney); conditions: RA 1 μM
T5 sequence (P10276 1-462): T2 sequence (P10276 1-462)
From the text: Receptor expression plasmids used in the following cotransfection assays have been described previously (pRShTRβ [see Thompson, et al., Proc. Natl. Acad. Sci. U.S.A. 86: 3494-3498 (1989)]; pRShRARα [see Giguere, et al., Nature 330: 624-629 (1987)]; pRShRARβ and pRshRARγ [see Ishikawa, et al., Mol. Endocrinol, 4: 837-844 (1990)]; and pRShVDR, [Schule, et al., Cell 61: 497-504 (1990)]. A basal reporter plasmid ΔSV-CAT was constructed by replacing the TK promoter in TK-CAT [Damm, et al., Nature 339: 593-597 (1989)] with the SphI-HindIII fragment of the SV40 early promoter. All of the recombinant CAT reporter plasmids used herein harbor a single copy of the indicated oligonucleotides at the unique HindIII site upstream of the SV40 promoter. Identity of the inserted oligonucleotides was confirmed by sequencing. To improve production of receptor proteins in COS cells, a new eukaryotic expression vector pCMX was prepared by modifying the plasmid CDM8 [Seed, B., Nature 329: 840-842 (1987)]. The CDM8 was cut with MluI and StuI in order to release the DNA fragment encoding the CMV/T7 promoter, SV40 small t intron/poly A signal, polyoma virus enhancer/origin, and SV40 enhancer/origin. The resulting fragment was ligated to a larger fragment of PvuII-digested PUC19. An internal deletion was introduced between unique BamHI and BclI sites present in the DCM8 portion. The stuffer sequence flanked by XbaI sites was replaced with a synthetic polylinker coding for 5′-KpnI/Asp718-EcoRV-BamHI -MscI-NheI-3′, followed by a stretch of 5′-[…]-3′ (SEQ ID NO:48) which can function as a universal termination signal for protein translation. The coding sequence of the luciferase [de Wet, et al., Mol. Cell. Biol. 7: 725-737 (1987)] and human TRβ, RARα, and VDR was placed in the polylinker region of the pCMX, generating pCMX-LUC, Pcmx-Htrβ, pCMX-hRARα, and pCMX-hVDR, respectively. The translation start site of the RARα was modified to […] by attaching the synthetic linker encoding a consensus translation start signal [Hollenberg, et al., Cell 55: 899-906 (1988)]. […]

VDR = target: T6, VDR (Homo sapiens, UniProt P11473); assay: Gel retardation DNA-binding assay with VDR-expressing COS cell extracts; set-up: expressed in transfected cells; host or cells: COS cells (whole-cell extract); conditions: VDR COS cell extract
T6 sequence (P11473 1-427): T4 sequence (P11473 1-427)
Description: For DNA binding assays, COS cells were cultured in DMEM with 10% calf bovine serum and transfected by the calcium phosphate method with 20 μg of the pCMX receptor expression plasmid for 6 hours followed by a glycerol shock. After incubating the transfected COS cells for another 48 hours, the cells were harvested to prepare extracts for the DNA binding assay, carried out as described by Damm et al., Nature 339: 593-597 (1989). The extracts were made in 20 mM HEPES (pH 7.4), 0.4 M KCl, 2 mM DTT and 20% glycerol. A similar method was employed to prepare a whole cell extract from F9 stem cells. For the binding, 5 μg (COS) or 10 μg (F9) of proteins was incubated on ice for 20 minutes, first in 20 mM HEPES, 80 mM KCl, 1 mM DTT, 0.1% NP40, 2.5 μg of poly dI/dC, and 10% glycerol (cold competitor oligonucleotides, when included, were added during this pre-incubation period). Then 40 fmole of ^32P-labeled oligonucleotide probe (1-2×10^5 cpm, prepared by filling-in reaction using Klenow polymerase in the presence of α-^32P-dCTP) was added to the reaction mixture, followed by incubation at room temperature for 30 minutes. The receptor-DNA complexes were resolved by electrophoresis through 5% polyacrylamide gel containing 5% glycerol at 6 V/cm at room temperature.
Finally, in vitro DNA-binding assays were carried out with COS cell extracts containing one of these receptor proteins.

Row | Substance | RA-dependent induction in the absence of cotransfected RAR expression vector (endogenous RA receptor) | activation with cotransfected GR (GR) | increase of induction by cotransfection of RAR-alpha expression vector (RAR) | activation with cotransfected TR, fold less (TR) | activation with cotransfected ER (ER) | activation with cotransfected vitamin D receptor, fold less [1] | RA response (in words) (RARα) | VDR binding to labeled oligonucleotide probe (VDR)
1 | 5′-AAGCTTAAG-GGTTCA-CCGAA-AGTTCA-CACGCATATATTAGCTT-3′ (SEQ ID NO:5) (AAGCTTAAGGGTTCACCGAAAGTTCACTCGCATATATTAGCTT; DNA, backbone not given here) [βRE1, oligonucleotide including the β retinoic acid response element] | robust RA-dependent induction | failed to result in appreciable activation | two-fold | 10- to 20 fold | failed to result in appreciable activation | 10- to 20 fold |  | 
2 | DR-3: perfect tandem repeat of AGGTCA hexamers separated by 3 nucleotides (SEQ ID NO:25) (AGCTTCAGGTCAAGGAGGTCAGAGAGCT; DNA, backbone not given here; double-stranded DNA response element with agct overhangs, cloned into reporter) |  |  |  |  |  |  | clear activity | specific protein-DNA complex

Source: US6492137B1, “Response element compositions and assays employing same” (The Salk Institute for Biological Studies, priority 1989, dated 2002)
